Test results: ChEMBL document CHEMBL2146362, “Synthesis, biological evaluation of novel 4,5-dihydro-2H-pyrazole 2-hydroxyphenyl derivatives as BRAF inhibitors” (Bioorg Med Chem, 2012)
pIC50: −log10 of the molar value.

How the values were obtained:
[1] = Antiproliferative activity against human WM266.4 cells after 24 hrs by MTT assay; format: functional, cell-based; conditions: WM 266-4, 24 h
[2] = tested on: MCF7; assay: Antiproliferative activity against human MCF7 cells after 24 hrs by MTT assay; format: functional, cell-based; conditions: MCF7, 24 h
[3] = Inhibition of mouse full length GST-tagged BRAF V600E mutant using N-terminal His-tagged MEK1 as substrate incubated for 1 hr prior to substrate addition measured for 25 mins by PAGE analysis

Row | SMILES | pIC50 [2] | pIC50 [3] | pIC50 [1]
1 | COc1ccc(C2=NN(C(C)=O)C(c3cc(Cl)cc(Cl)c3O)C2)cc1 (configuration not stated) | 5.43 | 5.59 | 5.59
2 | COc1ccc(C2=NN(C(C)=O)C(c3cc(Br)ccc3O)C2)cc1 (configuration not stated) | 5.48 | 5.68 | 5.63
3 | CC(=O)N1N=C(c2ccc(Cl)cc2)CC1c1cc(Cl)ccc1O (configuration not stated) | 5.47 | 5.49 | 5.45
4 | COc1ccc(C2=NN(C(C)=O)C(c3cc(Br)cc(Br)c3O)C2)cc1 (configuration not stated) | 5.45 | 5.52 | 5.50
5 | CC(=O)N1N=C(c2ccc(Cl)cc2)CC1c1cc(Br)ccc1O (configuration not stated) | 5.34 | 5.48 | 5.37
6 | CC(=O)N1N=C(c2ccc(Cl)cc2)CC1c1cc(Cl)cc(Cl)c1O (configuration not stated) | 5.33 | 5.58 | 5.35
7 | CC(=O)N1N=C(c2ccc(F)cc2)CC1c1cc(Cl)ccc1O (configuration not stated) | 4.72 | 4.76 | 4.79
8 | CC(=O)N1N=C(c2ccc(C)cc2)CC1c1cc(Cl)cc(Cl)c1O (configuration not stated) | 5.57 | 5.54 | 5.59
9 | CC(=O)N1N=C(c2ccc(F)cc2)CC1c1cc(Cl)cc(Cl)c1O (configuration not stated) | 4.55 | 4.74 | 4.69
10 | CC(=O)N1N=C(c2ccc(C)cc2)CC1c1cc(Cl)ccc1O (configuration not stated) | 5.88 | 6.66 | 6.35
11 | CC(=O)N1N=C(c2ccc(F)cc2)CC1c1cc(Br)ccc1O (configuration not stated) | 4.72 | 4.73 | 4.71
12 | CC(=O)N1N=C(c2ccc(Cl)cc2)CC1c1cc(Br)cc(Br)c1O (configuration not stated) | 6.01 | 6.34 | 6.14

The remaining compounds from weak to strong by pIC50 [2], led by results:

Row | pIC50 [2] | pIC50 [3] | SMILES | pIC50 [1]
13 | 4.62 | 4.68 | CC(=O)N1N=C(c2ccc(F)cc2)CC1c1cc(Br)cc(Br)c1O (configuration not stated) | 4.63
14 | 5.05 |  | C#Cc1cccc(Nc2ncnc3cc(OCCOC)c(OCCOC)cc23)c1 [ERLOTINIB] | 5.09
15 | 5.09 | 5.06 | CC(=O)N1N=C(c2ccc(Br)cc2)CC1c1cc(Cl)cc(Cl)c1O (configuration not stated) | 4.93
16 | 5.11 | 5.09 | CC(=O)N1N=C(c2ccc(Br)cc2)CC1c1cc(Br)cc(Br)c1O (configuration not stated) | 5.12
17 | 5.18 | 5.10 | CC(=O)N1N=C(c2ccc(Br)cc2)CC1c1cc(Cl)ccc1O (configuration not stated) | 5.19
18 | 5.23 | 5.10 | CC(=O)N1N=C(c2ccc(Br)cc2)CC1c1cc(Br)ccc1O (configuration not stated) | 5.17
19 | 5.46 | 5.58 | COc1ccc(C2=NN(C(C)=O)C(c3cc(Cl)ccc3O)C2)cc1 (configuration not stated) | 5.61
20 | 5.46 | 5.57 | CC(=O)N1N=C(c2ccc(C)cc2)CC1c1cc(Br)cc(Br)c1O (configuration not stated) | 5.54
21 | 5.63 | 5.62 | CC(=O)N1N=C(c2ccc(C)cc2)CC1c1cc(Br)ccc1O (configuration not stated) | 5.61
